Format in all cases: cell-based
For assay [1], the target named is T1, human prostanoid EP4 receptor (Homo sapiens, UniProt P35408).
T1 construct: expressed in transfected cells
In words: FLIPR Ca2+ signaling antagonist assay, EP4 receptor stable cell line. Particulars: HEK-293 EBNA stable cell line; standard agonist PGE2; NA = inactive (no antagonism or Kb 10,000 nM); PAg, Ag not defined. The protocol: (§1) The above compounds were tested for PG antagonist activity as follows using human recombinant prostanoid receptor (DP1, EP1-4, FP, IP and TP) stable cell lines:
(§2) In order to measure the response of Gs and Gi coupled prostanoid receptors as a Ca^2+ signal, chimeric G protein cDNAs were used. Stable cell lines over-expressing human prostanoid DP1, EP1-4, FP, IP, and TP receptors were established as follows:
(§3) Briefly, human prostanoid DP1, EP2, and EP4 receptor cDNAs were co-transfected with chimeric Gqs cDNA containing a haemagglutanin (HA) epitope; human prostanoid EP3 receptors were co-transfected with chimeric Gqi-HA; human EP1, FP, IP, and TP receptor cDNAs were expressed with no exogenous G-proteins. Gqs and Gqi chimeric cDNAs (Molecular Devices, Sunnyvale, Calif., U.S.A.), as well as cDNAs of prostanoid receptors, were cloned into a pCEP4 vector with a hygromycin B selection marker. Transfection into HEK-293 EBNA (Epstein-Barr virus nuclear antigen) cells was achieved by the FuGENE 6 transfection Reagent (Roche Applied Science, Indianapolis, Ind., USA). Stable transfectants were selected according to hygromycin resistance. Because Gqs and Gqi contained an HA epitope, G-protein expression was detected by Western blotting analysis using anti-mouse HA monoclonal antibody and horseradish peroxidase (HRP)-conjugated secondary antibody, while functional expression of prostanoid receptors was detected by FLIPR screening (Matias et al., 2004). These stable cell lines were validated using previously published antagonists at 10 μM against serial dilutions of standard agonists by FLIPR functional assays for Ca^2+ Signaling (as described below).
(§4) Ca^2+ signaling studies were performed using a FLIPR TETRA system (Molecular Devices, Sunnyvale, Calif., USA) in the 384-format. This is a high-throughput instrument for cell-based assays to monitor Ca^2+ signaling associated with GPCRs and ion channels. Cells were seeded at a density of 5×10^4 cells/well in BioCoat poly-D-lysine coated, black wall, clear bottom 384-well plates (BD Biosciences, Franklin lakes, NJ, USA) and allowed to attach overnight in an incubator at 37° C. The cells were then washed twice with HBSS-HEPES buffer (Hanks' balanced salt solution without bicarbonate and phenol red, 20 mM HEPES, pH 7.4) using an ELx405 Select CW Microplate Washer (BioTek, Winooski, Vt., USA). After 60 min of dye-loading in the dark using the Ca^2+-sensitive dye Fluo-4AM (Invitrogen, Carlsbad, Calif., USA), at a final concentration of 2×10^−6M, the plates were washed 4 times with HBSS-HEPES buffer to remove excess dye and leaving 50 μl of buffer in each well. The plates were then placed in the FLIPR TETRA instrument and allowed to equilibrate at 37° C. AGN-211377 was added in a 25 μl volume to each well to give final concentrations of 0.1 μM, 0.3 μM, 1 μM, 3 μM, 10 μM, and 30 μM; or 0.067 μM, 0.1 μM, 0.2 μM, 0.3 μM, 0.67 μM, and 1 μM for cells over-expressing TP receptors. After 4.5 minutes, a 7-point serial dilution of the standard agonist for the corresponding receptor, in a 25 μl volume was injected at the final concentrations from 10^−11M to 10^−5M in 10-fold serial dilution increments for cells expressing human recombinant DP1, EP1, EP2, EP3, EP4, FP, and IP receptors. The dose range for the standard agonist for human recombinant TP receptors was from 10^−12 M to 10^−6 M. HBSS-HEPES buffer was used as the negative control for the standard agonists. Cells were excited with LED (light emitting diode) excitation at 470-495 nm and emission was measured through an emission filter at 515-575 nm. Assay plates were read for 3.5 minutes using the FLIPR^TETRA. The peak increase in fluorescence intensity was recorded for each well. On each plate, negative controls, dose response of positive controls, and co-treatments of antagonist-agonist for each dose were in triplicates.
(§5) Standard agonists were as follows: DP=BW 245C, EP1-EP4=PGE2, FP=17-phenyl-PGF2α, IP=Cicaprost, and TP=U-46619. […]

Assay [2] deals with T2, human prostanoid TP receptor (Homo sapiens, UniProt P21731).
T2 construct: expressed in transfected cells
T2 sequence (P21731 1-343): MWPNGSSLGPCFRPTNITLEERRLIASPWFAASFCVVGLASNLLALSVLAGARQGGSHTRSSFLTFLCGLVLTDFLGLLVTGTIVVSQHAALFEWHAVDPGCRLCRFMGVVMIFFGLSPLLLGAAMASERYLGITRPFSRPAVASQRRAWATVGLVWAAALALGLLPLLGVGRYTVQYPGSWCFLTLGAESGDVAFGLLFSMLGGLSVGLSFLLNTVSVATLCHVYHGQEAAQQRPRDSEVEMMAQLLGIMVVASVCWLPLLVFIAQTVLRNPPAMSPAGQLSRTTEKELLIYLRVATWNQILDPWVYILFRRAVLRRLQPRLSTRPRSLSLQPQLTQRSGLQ
In words: FLIPR Ca2+ signaling antagonist assay, TP receptor stable cell line. Conditions: HEK-293 EBNA stable cell line; standard agonist U-46619; NA = inactive (no antagonism or Kb 10,000 nM); PAg, Ag not defined. The protocol:
as §1, §2, §3, §4, §5

Assay [3] addresses T3, human prostanoid EP1 receptor (Homo sapiens, UniProt P34995).
T3 construct: expressed in transfected cells
T3 sequence (P34995 1-402): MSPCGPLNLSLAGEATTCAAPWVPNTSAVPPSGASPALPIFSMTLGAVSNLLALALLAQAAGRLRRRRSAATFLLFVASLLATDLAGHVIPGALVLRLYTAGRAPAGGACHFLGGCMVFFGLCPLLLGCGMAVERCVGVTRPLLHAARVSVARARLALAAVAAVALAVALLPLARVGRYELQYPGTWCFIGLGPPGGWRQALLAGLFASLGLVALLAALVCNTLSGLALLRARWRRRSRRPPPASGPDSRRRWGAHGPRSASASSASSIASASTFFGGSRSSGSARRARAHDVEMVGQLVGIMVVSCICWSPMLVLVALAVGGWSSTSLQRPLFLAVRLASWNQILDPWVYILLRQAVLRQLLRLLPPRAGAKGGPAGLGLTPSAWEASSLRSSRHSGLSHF
In words: FLIPR Ca2+ signaling antagonist assay, EP1 receptor stable cell line. Conditions: HEK-293 EBNA stable cell line; standard agonist PGE2; NA = inactive (no antagonism or Kb 10,000 nM); PAg, Ag not defined. How it is done:
as §1, §2, §3, §4, §5

The target of assay [4] is T4, human prostanoid FP receptor (Homo sapiens, UniProt P43088).
T4 construct: expressed in transfected cells
T4 sequence (P43088 whole entry): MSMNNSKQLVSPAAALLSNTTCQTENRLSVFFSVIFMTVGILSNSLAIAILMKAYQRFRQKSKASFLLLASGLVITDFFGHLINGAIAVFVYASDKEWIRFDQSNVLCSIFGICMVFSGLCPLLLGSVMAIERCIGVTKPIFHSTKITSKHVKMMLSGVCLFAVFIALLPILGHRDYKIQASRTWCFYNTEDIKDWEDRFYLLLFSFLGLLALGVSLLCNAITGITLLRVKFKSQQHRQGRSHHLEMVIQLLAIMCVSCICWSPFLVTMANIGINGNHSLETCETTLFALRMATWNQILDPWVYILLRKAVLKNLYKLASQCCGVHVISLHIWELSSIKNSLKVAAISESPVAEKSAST
Put plainly: FLIPR Ca2+ signaling antagonist assay, FP receptor stable cell line. Particulars: HEK-293 EBNA stable cell line; standard agonist 17-phenyl-PGF2α; NA = inactive (no antagonism or Kb 10,000 nM); PAg, Ag not defined. How it is done: as §1, §2, §3, §4, §5

Assay [5] addresses T5, human prostanoid DP1 receptor (Homo sapiens, UniProt Q13258).
T5 construct: expressed in transfected cells
T5 sequence (Q13258 1-359): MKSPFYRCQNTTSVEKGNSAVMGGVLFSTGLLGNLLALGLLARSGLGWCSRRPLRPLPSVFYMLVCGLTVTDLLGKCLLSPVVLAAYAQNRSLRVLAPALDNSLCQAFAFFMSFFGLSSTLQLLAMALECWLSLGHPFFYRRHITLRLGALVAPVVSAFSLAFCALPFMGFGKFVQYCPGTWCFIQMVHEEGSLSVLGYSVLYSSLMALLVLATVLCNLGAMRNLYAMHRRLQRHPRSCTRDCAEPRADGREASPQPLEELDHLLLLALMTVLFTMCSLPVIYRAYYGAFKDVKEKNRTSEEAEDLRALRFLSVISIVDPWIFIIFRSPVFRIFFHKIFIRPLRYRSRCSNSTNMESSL
In words: FLIPR Ca2+ signaling antagonist assay, DP1 receptor stable cell line. Particulars: HEK-293 EBNA stable cell line; standard agonist BW 245C; NA = inactive (no antagonism or Kb 10,000 nM); PAg, Ag not defined. The protocol:
as §1, §2, §3, §4, §5

In assay [6] the target is T6, human prostanoid IP receptor (Homo sapiens, UniProt P43119).
T6 construct: expressed in transfected cells
T6 sequence (P43119 whole entry): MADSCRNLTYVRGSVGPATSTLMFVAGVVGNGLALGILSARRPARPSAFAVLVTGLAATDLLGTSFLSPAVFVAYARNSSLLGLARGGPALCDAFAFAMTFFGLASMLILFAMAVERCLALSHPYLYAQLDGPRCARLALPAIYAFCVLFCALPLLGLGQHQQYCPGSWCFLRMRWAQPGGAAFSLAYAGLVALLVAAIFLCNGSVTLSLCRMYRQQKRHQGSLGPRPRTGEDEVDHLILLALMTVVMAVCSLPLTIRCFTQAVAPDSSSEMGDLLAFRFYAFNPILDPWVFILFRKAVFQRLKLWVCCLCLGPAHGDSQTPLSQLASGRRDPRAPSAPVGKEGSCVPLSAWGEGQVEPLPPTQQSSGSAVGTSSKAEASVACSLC
In words: FLIPR Ca2+ signaling antagonist assay, IP receptor stable cell line. Conditions: HEK-293 EBNA stable cell line; standard agonist Cicaprost; NA = inactive (no antagonism or Kb 10,000 nM); PAg, Ag not defined. The protocol: as §1, §2, §3, §4, §5

Structures are written as SMILES.

T1 sequence (P35408 whole entry): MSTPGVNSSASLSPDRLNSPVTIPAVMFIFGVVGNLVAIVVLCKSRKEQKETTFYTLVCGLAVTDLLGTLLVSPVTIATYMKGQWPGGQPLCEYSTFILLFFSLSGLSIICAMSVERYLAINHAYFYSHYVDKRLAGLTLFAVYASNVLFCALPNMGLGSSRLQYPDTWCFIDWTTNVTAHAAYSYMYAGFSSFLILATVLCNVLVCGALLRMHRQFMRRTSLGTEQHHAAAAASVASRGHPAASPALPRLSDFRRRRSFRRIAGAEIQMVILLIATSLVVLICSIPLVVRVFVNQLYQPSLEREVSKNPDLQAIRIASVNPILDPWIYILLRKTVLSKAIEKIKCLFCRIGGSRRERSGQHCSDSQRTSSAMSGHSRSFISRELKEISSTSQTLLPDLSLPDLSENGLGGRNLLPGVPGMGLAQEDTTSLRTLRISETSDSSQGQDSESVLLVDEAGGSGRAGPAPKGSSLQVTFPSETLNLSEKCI

For orientation: Kb means the affinity of an antagonist, worked out from how it opposes an agonist. Low readings indicate higher antagonist affinity, high ones lower antagonist affinity. As for `CCC(CC)COc1ccc(C(N)=O)cc1Cn1nc(CCC(=O)O)cc1C` [Example 61, 3-{1-[5-Carbamoyl-2-(2-ethyl-butoxy)-benzyl]-5-methyl-1H-pyrazol-3-yl}-propionic acid], the Kb in assay [1] came to 0.8 µM; in assay [2] it was 1.1 µM.
Consider `Cc1cc(CCC(=O)NS(=O)(=O)c2ccccc2)nn1Cc1cc(Cl)ccc1OCc1ccc(Cl)cc1Cl` [Example 28, N-(3-[1-(5-Chloro-2-(2,4-dichlorobenzyloxy)benzyl)-5-methyl-1H-pyrazol-3-yl]-propionyl)benzenesulfonamide], for which the Kb is 0.23 µM in assay [3] and 0.54 µM in assay [2].
On to `Cc1cc(CCC(=O)NS(=O)(=O)C(F)(F)F)nn1Cc1cc(Cl)ccc1OCC(C)C` [Example 44, N-(3-[1-(5-Chloro-2-(2-methylpropyloxy)benzyl)-5-methyl-1H-pyrazol-3-yl]-propionyl)C,C,C-trifluoromethanesulfon amide], for which the Kb was determined as 0.5 µM in assay [4]; 0.8 µM in assay [5]; 0.014 µM in assay [3]; 0.5 µM in assay [1]; 0.005 µM in assay [2].
`CCC(CC)COc1ccccc1Cn1nc(CC(C)C(=O)O)cc1C` (racemic) [Example 69, 3-{1-[2-(2-ethyl-butoxy)-benzyl]-5-methyl-1H-pyrazol-3-yl}-2-methyl-propionic acid]: the antagonist equilibrium constant (Kb) is 2.5 µM in assay [4]; 0.7 µM in assay [5]; 0.18 µM in assay [3]; 0.6 µM in assay [1]; 0.3 µM in assay [2].
For `Cc1cc(CCC(=O)O)nn1Cc1cc(Cl)ccc1OCC1(C(F)(F)F)CCCC1` [Example 37, 3-[1-(5-Chloro-2-(1-trifluoromethylcyclopentylmethoxy)benzyl)-5-methyl-1H-pyrazol-3-yl]-propionic acid] the same measures were 1 µM, 0.4 µM, 0.18 µM, 1.9 µM and 0.16 µM.
For `COc1ccc(OCC2CC2)c(Cn2nc(CCC(=O)O)cc2C)c1` [Example 54, 3-[1-(2-Cyclopropylmethoxy-5-methoxy-benzyl)-5-methyl-1H-pyrazol-3-yl]-propionic acid] the same measures were 1 µM, 1.7 µM, 0.56 µM, 4.7 µM and 1.2 µM.
Take `CCC(CC)Oc1ccc(Cl)cc1Cn1nc(CCC(=O)O)cc1C` [Example 45, 3-[1-(5-Chloro-2-(1-ethylpropyloxy)benzyl)-5-methyl-1H-pyrazol-3-yl]-propionic acid]: the antagonist dissociation constant (Kb) is 0.66 µM in assay [4]; 0.5 µM in assay [5]; 0.24 µM in assay [3]; 6.1 µM in assay [6]; 0.035 µM in assay [2].
For `CCC(C)(CC)COc1ccc(Br)cc1Cn1nc(CCC(=O)O)cc1C` [Example 11, 3-{1-[5-Bromo-2-(2-ethyl-2-methyl-butoxy)-benzyl]-5-methyl-1H-pyrazol-3-yl}-propionic acid], the Kb in assay [4] turned out to be 0.11 µM; in assay [5] it was 0.38 µM; in assay [3] it was 0.036 µM; in assay [1] it was 0.43 µM; in assay [2], 0.025 µM.
For `CCC(CC)COc1ccc(F)cc1Cn1nc(CCC(=O)O)cc1C` [Example 47, 3-[1-[2-(2-Ethyl-butoxy)-5-fluoro-benzyl]-5-methyl-1H-pyrazol-3-yl]-propionic acid] the same measures were 2.3 µM, 0.24 µM, 0.37 µM, 0.4 µM and 0.1 µM.
As to `CCC(CC)COc1ccc(C(=O)O)cc1Cn1nc(CCC(=O)O)cc1C` [Example 62, 3-{1-[5-Carboxy-2-(2-ethyl-butoxy)-benzyl]-5-methyl-1H-pyrazol-3-yl}-propionic acid], the Kb was 2 µM in assay [3] and 3.7 µM in assay [2].
As for `Cc1cc(CCC(=O)O)nn1Cc1cc(Cl)ccc1OCC1CCCO1` (stereo not shown) [Example 33, 3-[1-(5-Chloro-2-(tetrahydrofuran-2-yl-methoxy)benzyl)-5-methyl-1H-pyrazol-3-yl]-propionic acid], the antagonist equilibrium constant (Kb) in assay [4] was 4 µM; in assay [3] it was 0.8 µM; in assay [2], 1 µM.
On to `Cc1cc(CCC(=O)O)nn1Cc1cc(Br)ccc1OCC1(C(F)(F)F)CCCC1` [Example 14, 3-[1-(5-Bromo-2-(1-trifluoromethylcyclopentylmethoxy)-benzyl)-5-methyl-1H-pyrazol-3-yl]-propionic acid], for which the Kb in assay [4] was found to be 1 µM; in assay [5], 0.4 µM; in assay [3], 0.18 µM; in assay [1] it was 1.9 µM; in assay [2], 0.16 µM.

Source of the values: patent publication US9394284B2, “Compounds act at multiple prostaglandin receptors giving a general anti-inflammatory response” (Allergan, Inc., priority 2010, dated 2016).
